Reference: article PMC11954145, “Antimicrobial and ADME properties of methoxylated, methylated and nitrated 2-hydroxynaphthalene-1 carboxanilides” (ADMET & DMPK, 2025)
Converted amounts (≈) assume the structure as drawn. “And” between values parts separate entries of the source, which are not always exact repeats. Equal values may be shown once. Read-outs that look alike come from different tables or passages of the source.

Tests used:
VRE 725B = experiment: Antibacterial screening, broth microdilution MIC; assay type: cell-based, vancomycin-resistant E. faecalis; conditions: Enterococcus, vanA isolate, 24 h at 37 °C, read-out: MIC VRE 725B
MRSA SA 3202 = experiment: Antibacterial screening, broth microdilution MIC; assay type: cell-based, methicillin-resistant S. aureus; conditions: Staphylococcus aureus, clinical isolate, 24 h at 37 °C, read-out: MIC MRSA SA 3202
E. coli ATCC 25922 = experiment: Antibacterial screening, broth microdilution MIC; assay type: cell-based; conditions: Escherichia coli, ATCC25922; ATCC 25922, 24 h at 37 °C
[1] = tested on: Enterococcus faecalis ATCC 29212; experiment: Antibacterial screening, broth microdilution MIC; assay type: cell-based; conditions: ATCC29212, ATCC 29212, 24 h at 37 °C, read-out: MIC E. faecalis
[2] = tested on: Mycobacterium smegmatis ATCC 700084; experiment: Antimycobacterial screening, broth dilution MIC; assay type: cell-based; conditions: Mycolicibacterium smegmatis, ATCC700084, 72 h; ATCC 700084, 3 days at 37 °C; read-out: MIC M. smegmatis
VRE 342B = experiment: Antibacterial screening, broth microdilution MIC; assay type: cell-based, vancomycin-resistant E. faecalis; conditions: Enterococcus, vanA isolate, 24 h at 37 °C, read-out: MIC VRE 342B
[3] = tested on: Mycobacterium kansasii DSM 44162; experiment: Antimycobacterial screening, broth dilution MIC; assay type: cell-based; conditions: DSM44162, 336 h, read-out: MIC M. kansasii
[4] = tested on: Mycobacterium tuberculosis ATCC 25177/H37Ra; experiment: Antimycobacterial screening, broth dilution MIC (Alamar blue); assay type: cell-based; conditions: 336 h, read-out: MIC M. tuberculosis
Method: The evaluation of in vitro antimycobacterial activity of the compounds was performed against Mycobacterium tuberculosis ATCC 25177/H37Ra, Mycobacterium kansasii DSM 44162 and Mycobacterium smegmatis ATCC 700084.
The broth dilution micro-method in Middlebrook 7H9 medium (Difco, Lawrence, KS, USA) supplemented with ADC Enrichment (Difco) was used to determine the minimum inhibitory concentration (MIC) as previously described. […] The final concentrations of the evaluated compounds, ranging from 256 to 0.125 μg mL^-1, were obtained by twofold serial dilution of the stock solution in a microtiter plate with a sterile medium. Bacterial inocula were prepared by transferring colonies from culture to sterile water. The plate was inoculated by tested microorganisms. The final concentration of bacterial cells was 1.5×10^6 for M. tuberculosis and 10^5 cells in a microtiter plate for other mycobacteria. Isoniazid and rifampicin (Sigma) were used as reference antimycobacterial drugs. Drug-free controls, sterility controls, and controls consisting of medium and DMSO alone were included. The plates were incubated for a defined time at an appropriate temperature (3 days at 37 °C for M. smegmatis, and 14 days at 37 °C for M. tuberculosis and M. kansasii). […] The MICs against M. tuberculosis were evaluated by Alamar blue (Oxoid). After incubation, 10 % of Alamar blue was added to each well, and the plate was incubated for 24 h. The MIC values were assessed as the lowest concentration of the tested compounds, which prevented changing blue resazurin to pink resorufin. The experiments were repeated three times. The minimum inhibitory concentrations (MICs) were defined as the lowest concentration of the compound at which no visible bacterial growth was observed. The MIC value is routinely and widely used in bacterial assays and is a standard detection limit according to the CLSI [60].

VRE 368 = experiment: Antibacterial screening, broth microdilution MIC; assay type: cell-based, vancomycin-resistant E. faecalis; conditions: Enterococcus, vanA isolate, 24 h at 37 °C, read-out: MIC VRE 368
MRSA 63718 = experiment: Antibacterial screening, broth microdilution MIC; assay type: cell-based, methicillin-resistant S. aureus; conditions: Staphylococcus aureus, read-out: MIC MRSA 63718
[5] = Lipophilicity determination by RP-HPLC (log k, log D); assay type: physicochemical; conditions: for log D6.5: RP-HPLC C18, MeOH 72 % / acetate-buffered saline pH 6.5; for log D7.4: RP-HPLC C18, MeOH 72 % / acetate-buffered saline pH 7.4; for log k (logarithm of the capacity factor): RP-HPLC C18, MeOH 72 % / water 28 %
From the text: An HPLC system Agilent 1200 equipped with a DAD detector (Agilent, Santa Clara, CA, USA) was used. A chromatographic column Symmetry® C18 5 μm, 4.6×250 mm, part No. WAT054275 (Waters Corp., Milford, MA, USA) was used. The HPLC separation process was monitored and evaluated with EZChrom Elite software ver. 3.3.2 (Agilent). Isocratic elution by a mixture of MeOH p.a. (72 %) and H2O-HPLC Mili-Q grade (28 %) as a mobile phase was used for the determination of capacity factor k. Isocratic elution by a mixture of MeOH p.a. (72 %) and acetate-buffered saline (pH 7.4 and pH 6.5) (28 %) as a mobile phase was used for the determination of distribution coefficients expressed as D7.4 and D6.5. The total flow of the column was 1.0 mL min^-1, the injection volume was 20 μL, the column temperature was 40 °C, and the sample temperature was 10 °C. The detection wavelength of 210 nm was chosen. A KI methanolic solution was used to determine the dead times (tD). Retention times (tR) were measured in minutes. The capacity factors k were calculated according to the formula k = (tR–tD)/tD, where tR is the retention time of the solute, and tD is the dead time obtained using an unretained analyte. The distribution coefficients DpH were calculated according to the formula DpH = (tR–tD)/tD. Each experiment was repeated three times.
The capacity factor and distribution coefficients were measured by RP-HPLC on a C18 column with methanol as an organic modifier of the mobile phase. In addition to the experimental lipophilicities, predicted log P values were also calculated using ACD/Percepta, see Table 1. […] The values of σ(Ar) are found in a wide range from 0.01 to 1.36, so the compounds contain substituents with both electron-donating and slightly electron-withdrawing properties.

S. aureus ATCC 29213 = experiment: Antibacterial screening, broth microdilution MIC; assay type: cell-based; conditions: Staphylococcus aureus, ATCC29213; ATCC 29213, 24 h at 37 °C; read-out: MIC S. aureus
MRSA SA 630 = experiment: Antibacterial screening, broth microdilution MIC; assay type: cell-based, methicillin-resistant S. aureus; conditions: Staphylococcus aureus, clinical isolate, 24 h at 37 °C, read-out: MIC MRSA SA 630
[6] = H37Ra, 14 days at 37 °C, Alamar blue
[7] = clinical isolate, 24 h at 37 °C

SMILES | MIC (VRE 725B) | MIC (MRSA SA 3202) | MIC (E. coli ATCC 25922) | MIC [1] | MIC [2] | MIC (VRE 342B) | MIC ([3]; DSM 44162, 14 days at 37 °C) | MIC [4, 6] | MIC (VRE 368) | MIC (MRSA 63718; [7]) | log D6.5 [5] | log D7.4 [5] | log k (logarithm of the capacity factor) [5] | MIC (S. aureus ATCC 29213) | MIC (MRSA SA 630) | MIC (MRSA 63718; 24 h) | MIC [4] | MIC [3]
Cc1ccccc1NC(=O)c1c(O)ccc2ccccc12 [Compound 8, 2-hydroxy-N-(2-methylphenyl)naphthalene-1-carboxamide] | 462 µM (≈ 128 µg/mL) | 462 µM (≈ 128 µg/mL) | 462 µM (≈ 128 µg/mL) | 462 µM (≈ 128 µg/mL) | 462 µM (≈ 128 µg/mL) | 462 µM (≈ 128 µg/mL) | 115 µM (≈ 31.9 µg/mL) | 231 µM (≈ 64.1 µg/mL) | 462 µM (≈ 128 µg/mL) | 462 µM (≈ 128 µg/mL) | 0.0745 | 0.0838 | 0.0858 | 462 µM (≈ 128 µg/mL) | 462 µM (≈ 128 µg/mL) |  |  | 
Cc1ccc(NC(=O)c2c(O)ccc3ccccc23)cc1C(F)(F)F [Compound 23, 2-Hydroxy-N-[4-methyl-3-(trifluoromethyl)phenyl]naphthalene-1-carboxamide] | 741 µM (≈ 256 µg/mL) | 46.3 µM (≈ 16 µg/mL) | 741 µM (≈ 256 µg/mL) | 741 µM (≈ 256 µg/mL) | 46.3 µM (≈ 16 µg/mL) | 741 µM (≈ 256 µg/mL) | 741 µM (≈ 256 µg/mL) | 371 µM (≈ 128 µg/mL) | 741 µM (≈ 256 µg/mL) |  | 0.4621 | 0.4636 | 0.46 and 0.4605 | 23.2 µM (≈ 8.01 µg/mL) | 92.7 µM (≈ 32 µg/mL) | 371 µM (≈ 128 µg/mL) |  | 
COc1cc(NC(=O)c2c(O)ccc3ccccc23)cc(OC)c1OC [Compound 7, 2-Hydroxy-N-(3,4,5-trimethoxyphenyl)naphthalene-1-carboxamide] | 724 µM (≈ 256 µg/mL) | 419 µM (≈ 148 µg/mL) | 838 µM (≈ 296 µg/mL) | 724 µM (≈ 256 µg/mL) | 210 µM (≈ 74.2 µg/mL) | 724 µM (≈ 256 µg/mL) | 838 µM (≈ 296 µg/mL) |  | 724 µM (≈ 256 µg/mL) | 838 µM (≈ 296 µg/mL) | -0.1053 | -0.0948 | -0.1150 | 838 µM (≈ 296 µg/mL) | 838 µM (≈ 296 µg/mL) |  | 210 µM (≈ 74.2 µg/mL) | 
COc1ccc(NC(=O)c2c(O)ccc3ccccc23)cc1 [Compound 4, 2-hydroxy-N-(4-methoxyphenyl)naphthalene-1-carboxamide] | > 873 µM | > 873 µM | 873 µM (≈ 256 µg/mL) | > 873 µM | 436 µM (≈ 128 µg/mL) | > 873 µM | 218 µM (≈ 63.9 µg/mL) | 109 µM (≈ 32 µg/mL) | > 873 µM | > 873 µM | -0.0491 | -0.0382 | -0.0380 | > 873 µM | > 873 µM |  |  | 
COc1ccc(Cl)c(NC(=O)c2c(O)ccc3ccccc23)c1 [Compound 18, N-(2-Chloro-5-methoxyphenyl)-2-hydroxynaphthalene-1-carboxamide] | 781 µM (≈ 256 µg/mL) | 97.6 µM (≈ 32 µg/mL) | 781 µM (≈ 256 µg/mL) | 781 µM (≈ 256 µg/mL) | 781 µM (≈ 256 µg/mL) | 781 µM (≈ 256 µg/mL) |  | 391 µM (≈ 128 µg/mL) | 781 µM (≈ 256 µg/mL) | 195 µM (≈ 63.9 µg/mL) | 0.4607 | 0.4593 | 0.46 and 0.4635 | 48.8 µM (≈ 16 µg/mL) | 48.8 µM (≈ 16 µg/mL) |  |  | 391 µM (≈ 128 µg/mL)
COc1ccc(OC)c(NC(=O)c2c(O)ccc3ccccc23)c1 [Compound 5, N-(2,5-Dimethoxyphenyl)-2-hydroxynaphthalene-1-carboxamide] | 792 µM (≈ 256 µg/mL) | 792 µM (≈ 256 µg/mL) | 792 µM (≈ 256 µg/mL) | 792 µM (≈ 256 µg/mL) | 792 µM (≈ 256 µg/mL) | 792 µM (≈ 256 µg/mL) | 792 µM (≈ 256 µg/mL) | 396 µM (≈ 128 µg/mL) | 792 µM (≈ 256 µg/mL) | 792 µM (≈ 256 µg/mL) | 0.3263 | 0.3310 | 0.3353 | 792 µM (≈ 256 µg/mL) | 792 µM (≈ 256 µg/mL) |  |  | 
COc1ccc(C(F)(F)F)cc1NC(=O)c1c(O)ccc2ccccc12 [Compound 20, 2-Hydroxy-N-[2-methoxy-5-(trifluoromethyl)phenyl]naphthalene-1-carboxamide] | 709 µM (≈ 256 µg/mL) | 709 µM (≈ 256 µg/mL) | 709 µM (≈ 256 µg/mL) | 709 µM (≈ 256 µg/mL) | 709 µM (≈ 256 µg/mL) | 709 µM (≈ 256 µg/mL) | 709 µM (≈ 256 µg/mL) | 354 µM (≈ 128 µg/mL) | 709 µM (≈ 256 µg/mL) | 709 µM (≈ 256 µg/mL) | 0.5323 | 0.5305 | 0.5335 | 709 µM (≈ 256 µg/mL) | 709 µM (≈ 256 µg/mL) |  |  | 
